Data set [1] in a line: Apparent permeability of the compound across bacterial inner membrane mimic PC-phospholipids in PBS buffer at pH 7.4 incubated for 5 hrs by PAMPA based UV-Vis spectrophotometric analysis. It counts as ADME. For orientation: In PAMPA a lipid-coated filter parts donor from acceptor wells.
Data set [2] in a line: Apparent permeability of the compound across bacterial inner membrane mimic PC-phospholipids in PBS buffer at pH 7.4 incubated for 5 hrs in presence of 1,3,3-tris(8-carbamimidamidooctyl)-1-{8-[N'-(cyclopropylmethyl)carbamimidamido]octyl}urea trifluoroacetate salt by PAMPA based UV-Vis spectrophotometric analysis.
A short description of data set [3]: Apparent permeability of the compound across bacterial inner membrane mimic pure POPG in PBS buffer at pH 7.4 incubated for 5 hrs by PAMPA based UV-Vis spectrophotometric analysis. It counts as ADME.
Data set [4] in a line: Apparent permeability of the compound across bacterial inner membrane mimic PC-phospholipids in PBS buffer at pH 7.4 incubated for 5 hrs in presence of 1,3-bis(8-aminooctyl)-1,3-bis(8- carbamimidamidooctyl)urea trifluoroacetate salt by PAMPA based UV-Vis spectrophotometric analysis.
The nature of data set [5]: Apparent permeability of the compound across bacterial inner membrane mimic PC-phospholipids in PBS buffer at pH 7.4 incubated for 5 hrs in presence of 1,1-bis({6-[N'-(cyclopropylmethyl)carbamimidamido]hexyl})-3-{8-[N'-(cyclopropylmethyl)carbamimidamido]octyl}-3-octylurea by PAMPA based UV-Vis spectrophotometric analysis.
Data set [6] is described as follows: Apparent permeability of the compound across bacterial inner membrane mimic POPE/POPG (6:4) in PBS buffer at pH 7.4 incubated for 5 hrs by PAMPA based UV-Vis spectrophotometric analysis. The class given is ADME.
A short description of data set [7]: Apparent permeability of the compound across bacterial inner membrane mimic PC-phospholipids in PBS buffer at pH 7.4 incubated for 5 hrs in presence of {8-[N'(cyclopropylmethyl)carbamimidamido]octyl}urea trifluoroacetate salt by PAMPA based UV-Vis spectrophotometric analysis.
Data set [8] can be described thus: Apparent permeability of the compound across bacterial inner membrane mimic PC-phospholipids in PBS buffer at pH 7.4 incubated for 5 hrs in presence of 1,3-bis(8-carbamimidamidooctyl)-1,3-bis({8-[N'-(cyclopropylmethyl)carbamimidamido]octyl})urea by PAMPA based UV-Vis spectrophotometric analysis.
The nature of data set [9]: Apparent permeability of the compound across bacterial inner membrane mimic pure POPG in PBS buffer at pH 7.4 incubated for 5 hrs in presence of 1,3-bis(8-carbamimidamidooctyl)-1,3-bis({8-[N'-(cyclopropylmethyl)carbamimidamido]octyl})urea by PAMPA based UV-Vis spectrophotometric analysis.
Data set [10] can be described thus: Apparent permeability of the compound across bacterial inner membrane mimic pure POPG in PBS buffer at pH 7.4 incubated for 5 hrs in presence of {8-[N'(cyclopropylmethyl)carbamimidamido]octyl}urea trifluoroacetate salt by PAMPA based UV-Vis spectrophotometric analysis.
The nature of data set [11]: Apparent permeability of the compound across bacterial inner membrane mimic pure POPG in PBS buffer at pH 7.4 incubated for 5 hrs in presence of 1,1-bis({6-[N'-(cyclopropylmethyl)carbamimidamido]hexyl})-3-{8-[N'-(cyclopropylmethyl)carbamimidamido]octyl}-3-octylurea by PAMPA based UV-Vis spectrophotometric analysis.
A short description of data set [12]: Apparent permeability of the compound across bacterial inner membrane mimic pure POPG in PBS buffer at pH 7.4 incubated for 5 hrs in presence of 1,3-bis(8-aminooctyl)-1,3-bis(8- carbamimidamidooctyl)urea trifluoroacetate salt by PAMPA based UV-Vis spectrophotometric analysis.
The nature of data set [13]: Apparent permeability of the compound across bacterial inner membrane mimic pure POPG in PBS buffer at pH 7.4 incubated for 5 hrs in presence of 1,3,3-tris(8-carbamimidamidooctyl)-1-{8-[N'-(cyclopropylmethyl)carbamimidamido]octyl}urea trifluoroacetate salt by PAMPA based UV-Vis spectrophotometric analysis.
Data set [14] is described as follows: Apparent permeability of the compound across bacterial inner membrane mimic POPE/POPG (6:4) in PBS buffer at pH 7.4 incubated for 5 hrs in presence of 1,3-bis(8-carbamimidamidooctyl)-1,3-bis({8-[N'-(cyclopropylmethyl)carbamimidamido]octyl})urea by PAMPA based UV-Vis spectrophotometric analysis.
Data set [15] in a line: Apparent permeability of the compound across bacterial inner membrane mimic POPE/POPG (6:4) in PBS buffer at pH 7.4 incubated for 5 hrs in presence of {8-[N'(cyclopropylmethyl)carbamimidamido]octyl}urea trifluoroacetate salt by PAMPA based UV-Vis spectrophotometric analysis.
Data set [16] is described as follows: Apparent permeability of the compound across bacterial inner membrane mimic POPE/POPG (6:4) in PBS buffer at pH 7.4 incubated for 5 hrs in presence of 1,1-bis({6-[N'-(cyclopropylmethyl)carbamimidamido]hexyl})-3-{8-[N'-(cyclopropylmethyl)carbamimidamido]octyl}-3-octylurea by PAMPA based UV-Vis spectrophotometric analysis.
A short description of data set [17]: Apparent permeability of the compound across bacterial inner membrane mimic POPE/POPG (6:4) in PBS buffer at pH 7.4 incubated for 5 hrs in presence of 1,3-bis(8-aminooctyl)-1,3-bis(8- carbamimidamidooctyl)urea trifluoroacetate salt by PAMPA based UV-Vis spectrophotometric analysis.
Data set [18] can be described thus: Apparent permeability of the compound across bacterial inner membrane mimic POPE/POPG (6:4) in PBS buffer at pH 7.4 incubated for 5 hrs in presence of 1,3,3-tris(8-carbamimidamidooctyl)-1-{8-[N'-(cyclopropylmethyl)carbamimidamido]octyl}urea trifluoroacetate salt by PAMPA based UV-Vis spectrophotometric analysis.
Data set [19] can be described thus: Apparent permeability of the compound across bacterial inner membrane mimic PC-phospholipids in PBS buffer assessed as membrane retention at pH 7.4 incubated for 5 hrs in presence of 1,3-bis(8-carbamimidamidooctyl)-1,3-bis({8-[N'-(cyclopropylmethyl)carbamimidamido]octyl})urea by PAMPA based UV-Vis spectrophotometric analysis. It counts as ADME, cell membranes. The settings on record: pH 7.4, 5 h.

The nature of data set [20]: Apparent permeability of the compound across bacterial inner membrane mimic PC-phospholipids in PBS buffer assessed as membrane retention at pH 7.4 incubated for 5 hrs by PAMPA based UV-Vis spectrophotometric analysis. The settings on record: pH 7.4, 5 h. It counts as ADME, cell membranes.
Data set [21] in a line: Apparent permeability of the compound across bacterial inner membrane mimic pure POPG in PBS buffer assessed as membrane retention at pH 7.4 incubated for 5 hrs by PAMPA based UV-Vis spectrophotometric analysis. It counts as ADME, cell membranes. The settings on record: pH 7.4, 5 h.
Data set [22] is described as follows: Apparent permeability of the compound across bacterial inner membrane mimic POPE/POPG (6:4) in PBS buffer assessed as membrane retention at pH 7.4 incubated for 5 hrs by PAMPA based UV-Vis spectrophotometric analysis. The settings on record: pH 7.4, 5 h. It counts as ADME, cell membranes.
A short description of data set [23]: Apparent permeability of the compound across bacterial inner membrane mimic PC-phospholipids in PBS buffer assessed as membrane retention at pH 7.4 incubated for 5 hrs in presence of {8-[N'(cyclopropylmethyl)carbamimidamido]octyl}urea trifluoroacetate salt by PAMPA based UV-Vis spectrophotometric analysis. It counts as ADME, cell membranes. The settings on record: pH 7.4, 5 h.

Data set [24] is described as follows: Apparent permeability of the compound across bacterial inner membrane mimic PC-phospholipids in PBS buffer assessed as membrane retention at pH 7.4 incubated for 5 hrs in presence of 1,1-bis({6-[N'-(cyclopropylmethyl)carbamimidamido]hexyl})-3-{8-[N'-(cyclopropylmethyl)carbamimidamido]octyl}-3-octylurea by PAMPA based UV-Vis spectrophotometric analysis. The settings on record: pH 7.4, 5 h. It counts as ADME, cell membranes.

Data set [25] can be described thus: Apparent permeability of the compound across bacterial inner membrane mimic PC-phospholipids in PBS buffer assessed as membrane retention at pH 7.4 incubated for 5 hrs in presence of 1,3-bis(8-aminooctyl)-1,3-bis(8- carbamimidamidooctyl)urea trifluoroacetate salt by PAMPA based UV-Vis spectrophotometric analysis. It counts as ADME, cell membranes. The settings on record: pH 7.4, 5 h.

The nature of data set [26]: Apparent permeability of the compound across bacterial inner membrane mimic PC-phospholipids in PBS buffer assessed as membrane retention at pH 7.4 incubated for 5 hrs in presence of 1,3,3-tris(8-carbamimidamidooctyl)-1-{8-[N'-(cyclopropylmethyl)carbamimidamido]octyl}urea trifluoroacetate salt by PAMPA based UV-Vis spectrophotometric analysis. It counts as ADME, cell membranes. The settings on record: pH 7.4, 5 h.

Data set [27] can be described thus: Apparent permeability of the compound across bacterial inner membrane mimic pure POPG in PBS buffer assessed as membrane retention at pH 7.4 incubated for 5 hrs in presence of 1,3-bis(8-carbamimidamidooctyl)-1,3-bis({8-[N'-(cyclopropylmethyl)carbamimidamido]octyl})urea by PAMPA based UV-Vis spectrophotometric analysis. The settings on record: pH 7.4, 5 h. The class given is ADME, cell membranes.

Data set [28] can be described thus: Apparent permeability of the compound across bacterial inner membrane mimic pure POPG in PBS buffer assessed as membrane retention at pH 7.4 incubated for 5 hrs in presence of {8-[N'(cyclopropylmethyl)carbamimidamido]octyl}urea trifluoroacetate salt by PAMPA based UV-Vis spectrophotometric analysis. The class given is ADME, cell membranes. The settings on record: pH 7.4, 5 h.

Data set [29] in a line: Apparent permeability of the compound across bacterial inner membrane mimic pure POPG in PBS buffer assessed as membrane retention at pH 7.4 incubated for 5 hrs in presence of 1,1-bis({6-[N'-(cyclopropylmethyl)carbamimidamido]hexyl})-3-{8-[N'-(cyclopropylmethyl)carbamimidamido]octyl}-3-octylurea by PAMPA based UV-Vis spectrophotometric analysis. The settings on record: pH 7.4, 5 h. The class given is ADME, cell membranes.

The nature of data set [30]: Apparent permeability of the compound across bacterial inner membrane mimic pure POPG in PBS buffer assessed as membrane retention at pH 7.4 incubated for 5 hrs in presence of 1,3-bis(8-aminooctyl)-1,3-bis(8- carbamimidamidooctyl)urea trifluoroacetate salt by PAMPA based UV-Vis spectrophotometric analysis. The class given is ADME, cell membranes. The settings on record: pH 7.4, 5 h.

A short description of data set [31]: Apparent permeability of the compound across bacterial inner membrane mimic pure POPG in PBS buffer assessed as membrane retention at pH 7.4 incubated for 5 hrs in presence of 1,3,3-tris(8-carbamimidamidooctyl)-1-{8-[N'-(cyclopropylmethyl)carbamimidamido]octyl}urea trifluoroacetate salt by PAMPA based UV-Vis spectrophotometric analysis. The class given is ADME, cell membranes. The settings on record: pH 7.4, 5 h.

The nature of data set [32]: Apparent permeability of the compound across bacterial inner membrane mimic POPE/POPG (6:4) in PBS buffer assessed as membrane retention at pH 7.4 incubated for 5 hrs in presence of 1,3-bis(8-carbamimidamidooctyl)-1,3-bis({8-[N'-(cyclopropylmethyl)carbamimidamido]octyl})urea by PAMPA based UV-Vis spectrophotometric analysis. The class given is ADME, cell membranes. The settings on record: pH 7.4, 5 h.

The nature of data set [33]: Apparent permeability of the compound across bacterial inner membrane mimic POPE/POPG (6:4) in PBS buffer assessed as membrane retention at pH 7.4 incubated for 5 hrs in presence of {8-[N'(cyclopropylmethyl)carbamimidamido]octyl}urea trifluoroacetate salt by PAMPA based UV-Vis spectrophotometric analysis. It counts as ADME, cell membranes. The settings on record: pH 7.4, 5 h.

The nature of data set [34]: Apparent permeability of the compound across bacterial inner membrane mimic POPE/POPG (6:4) in PBS buffer assessed as membrane retention at pH 7.4 incubated for 5 hrs in presence of 1,1-bis({6-[N'-(cyclopropylmethyl)carbamimidamido]hexyl})-3-{8-[N'-(cyclopropylmethyl)carbamimidamido]octyl}-3-octylurea by PAMPA based UV-Vis spectrophotometric analysis. It counts as ADME, cell membranes. The settings on record: pH 7.4, 5 h.

A short description of data set [35]: Apparent permeability of the compound across bacterial inner membrane mimic POPE/POPG (6:4) in PBS buffer assessed as membrane retention at pH 7.4 incubated for 5 hrs in presence of 1,3-bis(8-aminooctyl)-1,3-bis(8- carbamimidamidooctyl)urea trifluoroacetate salt by PAMPA based UV-Vis spectrophotometric analysis. The class given is ADME, cell membranes. The settings on record: pH 7.4, 5 h.

Data set [36] can be described thus: Apparent permeability of the compound across bacterial inner membrane mimic POPE/POPG (6:4) in PBS buffer assessed as membrane retention at pH 7.4 incubated for 5 hrs in presence of 1,3,3-tris(8-carbamimidamidooctyl)-1-{8-[N'-(cyclopropylmethyl)carbamimidamido]octyl}urea trifluoroacetate salt by PAMPA based UV-Vis spectrophotometric analysis. The class given is ADME, cell membranes. The settings on record: pH 7.4, 5 h.

Regarding `O=C(N[C@H](CO)[C@H](O)c1ccc([N+](=O)[O-])cc1)C(Cl)Cl` [CHLORAMPHENICOL], the Papp at 5 h in data set [1] is 0.54 ×10⁻⁶ cm/s; in [2], 4.67 ×10⁻⁶ cm/s; in data set [3], 0.06 ×10⁻⁶ cm/s; in data set [4] it was 3.24 ×10⁻⁶ cm/s; in data set [5] it was 8.73 ×10⁻⁶ cm/s; in data set [6], 1.12 ×10⁻⁶ cm/s. The Papp at 5 h was found to be 0.04 ×10⁻⁶ cm/s in data set [7]; 6.12 ×10⁻⁶ cm/s in [8]; 2.18 ×10⁻⁶ cm/s in data set [9]; 0.08 ×10⁻⁶ cm/s in data set [10]; 3.39 ×10⁻⁶ cm/s in data set [11]; 3.14 ×10⁻⁶ cm/s in data set [12]. Moreover, the Papp at 5 h in [13] turned out to be 3.78 ×10⁻⁶ cm/s; in [14], 1.39 ×10⁻⁶ cm/s; in data set [15], 1.67 ×10⁻⁶ cm/s; in data set [16] it was 6.64 ×10⁻⁶ cm/s; in [17], 6.11 ×10⁻⁶ cm/s; in [18], 6.98 ×10⁻⁶ cm/s.

Regarding `Cn1c(=O)c2c(ncn2C)n(C)c1=O` [CAFFEINE], the R% came to 12.6% in [19]; 3.2% in [20]; 4.5% in [21]; 3.3% in [22]; 12.8% in data set [23]; 0% in [24]. Moreover, the R% in data set [25] stood at 15.8%; in data set [26], 8.1%; in data set [27] it was 13.5%; in data set [28] it was 13.4%; in data set [29] it was 14.7%; in data set [30] it was 17.1%. Also, the R% in data set [31] is recorded as 14.6%; in data set [32], 12.6%; in data set [33] it was 17.5%; in data set [34], 16.7%; in [35], 16.5%; in data set [36] it was 19%.

One may read the Papp as a coefficient for how fast a substance crosses the barrier.
